Data: ChEMBL document CHEMBL1136472, “3-iodo-4-phenoxypyridinones (IOPY's), a new family of highly potent non-nucleoside inhibitors of HIV-1 reverse transcriptase” (Bioorg Med Chem Lett, 2003)

Columns and labels:
MT4 [1] = experiment: Anti-HIV-1 activity against LAI strain in MT-4 cells.; assay type: functional, cell-based; conditions: Homo sapiens
MT4 [2] = experiment: Anti-HIV-1 activity against K103N strain in MT-4 cells by the MTT method; assay type: functional, cell-based; conditions: Homo sapiens
[3] = Selectivity index is the ratio of 50% cytotoxic concentration to IC50 against LAI strain in MT-4 cells by the MTT method was determined; assay type: functional, MT4
MT4 [4] = experiment: Anti-HIV-1 activity against Y181C strain, in MT-4 cells by the MTT method; assay type: functional, cell-based; conditions: Homo sapiens
MT4 [5] = experiment: Anti-HIV-1 activity against LAI strain in MT-4 cells by the MTT method; assay type: functional, cell-based; conditions: Homo sapiens
MT4 [6] = experiment: Anti-HIV-1 activity against […] strain was determined in MT-4 cells by the MTT method; assay type: functional, cell-based; conditions: Homo sapiens
MT4 [7] = experiment: Anti-HIV-1 activity against K103N+[…] strain was determined in MT-4 cells by the MTT method; assay type: functional, cell-based; conditions: Homo sapiens
MT4 [8] = experiment: Anti-HIV-1 activity against K103N+Y181C strain was determined in MT-4 cells by the MTT method; assay type: functional, cell-based; conditions: Homo sapiens
MT4 [9] = experiment: Anti-HIV-1 activity against Y188L strain was determined in MT-4 cells by the MTT method; assay type: functional, cell-based; conditions: Homo sapiens

Structure (SMILES)	IC50 (MT4 [1]) [µM]	IC50 (MT4 [2]) [nM]	SI [3]	IC50 (MT4 [4]) [nM]	IC50 (MT4 [5]) [nM]	IC50 (MT4 [6]) [nM]	IC50 (MT4 [7]) [µM]	IC50 (MT4 [8]) [nM]	IC50 (MT4 [9]) [nM]
O=c1[nH]c(=O)n(COCCO)c(Sc2ccccc2)c1I	3.6	–	–	–	–	–	–	–	–
CCc1c(C)nc(O)c(I)c1Oc1cccc(C)c1	–	32	19900	51	1.6	–	–	–	–
CCc1c(C)nc(O)c(N(C)C)c1Oc1cc(C)cc(C)c1	–	50	25000	158	4	–	–	–	–
CCc1c(C)nc(O)c(I)c1Oc1ccccc1	–	40	63000	316	1.6	–	–	–	–
CCc1c(Oc2cc(C)cc(C)c2)cc(=O)[nH]c1C	–	–	200	–	500	–	–	–	–
CCc1c(C)[nH]c(=O)c(I)c1Oc1cc(C)cc(C)c1	–	3	9000	20	1.3	6	0.02	40	45
CCOCn1c(Cc2cc(C)cc(C)c2)c(C(C)C)c(=O)[nH]c1=O	–	40	52000	180	1	–	–	–	–
CCc1c(C)[nH]c(=O)c(N(C)C)c1Cc1cc(C)cc(C)c1	–	32	12500	100	8	50	–	800	300
CCc1c(C)nc(O)c([N+](=O)[O-])c1Oc1cc(C)cc(C)c1	–	100	2500	158	4	–	–	–	–
CC(C)Nc1cccnc1N1CCN(C(=O)c2cc3cc(NS(C)(=O)=O)ccc3[nH]2)CC1 [DELAVIRDINE]	–	–	–	–	–	1900	> 10	> 10000	–
O=C1Nc2ccc(Cl)cc2[C@@](C#CC2CC2)(C(F)(F)F)O1 [EFAVIRENZ]	–	40	–	40	1	2	> 10	40	200
CCOCn1c(Cc2ccccc2)c(C(C)C)c(=O)[nH]c1=O [EMIVIRINE]	–	32	12500	100	8	–	–	–	–
